From ChEMBL document CHEMBL5233222, “Bridging free radical chemistry with drug discovery: A promising way for finding novel drugs efficiently” (Eur J Med Chem, 2020) come the findings set out here.

Usually IC50 stands for the concentration needed to halve the response being measured. Low readings indicate inhibition by little substance, high ones a need for much substance.

This assay is described as follows: Inhibition of AAPH-induced hemolysis of human erythrocytes. Format: functional, cell-based. As to conditions: erythrocyte.

`CC(C)=CCC[C@](C)(O[C@@H]1O[C@H](CO[C@@H]2O[C@H](CO)[C@@H](O)[C@H](O)[C@H]2O)[C@@H](O)[C@H](O)[C@H]1O)[C@H]1CC[C@]2(C)[C@@H]1[C@H](O)C[C@@H]1[C@@]3(C)CC[C@H](O[C@@H]4O[C@H](CO)[C@@H](O)[C@H](O)[C@H]4O[C@@H]4O[C@H](CO)[C@@H](O)[C@H](O)[C@H]4O)C(C)(C)[C@@H]3CC[C@]12C` [GINSENOSIDE RB1] registered an IC50 of 3180 nM.
In turn, `CC(C)=CCC[C@](C)(O[C@@H]1O[C@H](CO[C@@H]2OC[C@@H](O)[C@H](O)[C@H]2O)[C@@H](O)[C@H](O)[C@H]1O)[C@H]1CC[C@]2(C)[C@@H]1[C@H](O)C[C@@H]1[C@@]3(C)CC[C@H](O[C@@H]4O[C@H](CO)[C@@H](O)[C@H](O)[C@H]4O[C@@H]4O[C@H](CO)[C@@H](O)[C@H](O)[C@H]4O)C(C)(C)[C@@H]3CC[C@]12C` [GINSENOSIDE RB3] showed an IC50 of 2650 nM.
